Laboratory results taken from patent publication US20220204497A1, “NOVEL COMPOUND HAVING ANTICANCER ACTIVITY, AND METHOD FOR PRODUCING SAME” (MEDICINAL BIOCONVERGENCE RESEARCH CENTER, priority 2019, published 2022).

Columns and labels:
[1] = system: A549 cells; assay: Cell viability by MTT method in A549 cells; assay type: cell-based; parameters: concentration or dose not given beside the values; conditions: 72 hours treatment
[2] = target: T1, AIMP2-DX2 (Homo sapiens, UniProt Q13155); assay: DX2-nanoluciferase assay (DX2 expression change) in transfected A549 cells; conditions: for inhibition at 10 µM / inhibition at 40 µM: A549, 4 h; for inhibition at 10 µM: read-out: DX-Nanoluciferase activity (10 μM), 10 μM, 4 hours treatment, A549 cells transfected with nanoluciferase-DX2; for inhibition at 40 µM: read-out: DX-Nanoluciferase activity (40 μM), 40 μM, 4 hours treatment, A549 cells transfected with nanoluciferase-DX2
T1 sequence (Q13155 1-251 isoform Q13155-2): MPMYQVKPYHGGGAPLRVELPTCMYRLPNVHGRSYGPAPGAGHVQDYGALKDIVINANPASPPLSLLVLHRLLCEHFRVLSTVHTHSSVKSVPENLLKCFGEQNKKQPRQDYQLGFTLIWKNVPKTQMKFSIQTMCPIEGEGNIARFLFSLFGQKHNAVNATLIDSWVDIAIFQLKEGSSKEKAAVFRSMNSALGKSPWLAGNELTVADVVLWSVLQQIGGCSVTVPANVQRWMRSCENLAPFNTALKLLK
Method: After cloning DX2 into a plasmid expressing nanoluciferase, the plasmid was transfected into A549 cells. Transfected cells were seeded 1×10^4 per well in a 96-well plate and stabilized for 12 hours. […] Cell viability was measured by the MTT method after 72 hours of treatment with each concentration of the compound in A549 cells.

[3] = inhibitory effect on AIMP2-DX2 expression

SMILES | Cell Viability (% inhibition) (A549) [1] [%] | inhibition at 10 µM [2] [%] | DX-Nanoluciferase activity (40 μM) ([2]; 40 μM, 4 hours treatment, A549 cells transfected with nanoluciferase-DX2, inhibitory effect on AIMP2-DX2 expression) | inhibition at 40 µM [2, 3] [%] | DX-Nanoluciferase activity (10 μM) ([2]; 10 μM, 4 hours treatment, A549 cells transfected with nanoluciferase-DX2)
Cc1ccc(S(=O)(=O)N[C@@H](Cc2c[nH]c3ccccc23)C(=O)Nc2ccc(N3CCN(C(=O)OC(C)(C)C)CC3)cc2)cc1 [Compound 122, (S)-tert-Butyl 4-(4-(3-(1H-indol-3-yl)-2-(4-methylphenylsulfonamido)propanamido)phenyl)piperazine-1-carboxylate] | 69.45 ± 1.3 | 38 ± 1.7 | – | – | –
Cc1ccc(S(=O)(=O)N[C@@H](Cc2cn(C)c3ccccc23)C(=O)Nc2ccc(N3CCOCC3)cc2)cc1 [Compound 47, (S)-3-(1-methyl-1H-indol-3-yl)-2-(4-methylphenylsulfonamido)-N-(4-morpholinophenyl) propanamide] | 64.95 ± 2.84 | – | 38.20 ± 7.73 | – | –
COc1ccc(NC(=O)NNC(=O)[C@H](Cc2c[nH]c3ccccc23)NS(=O)(=O)c2ccc(C)cc2)cc1 [Compound 183, (S)-2-(3-(1H-indol-3-yl)-2-(4-methylphenylsulfonamido)propanoyl)-N-(4-methoxyphenyl)hydrazinecarboxamide] | 42.25 ± 5.21 | 68.1 ± 8.2 | – | – | –
Cc1ccc(S(=O)(=O)N[C@@H](Cc2ccccc2)C(=O)N2CCOCC2)cc1 [Compound 38, (S)-4-methyl-N-(1-morpholino-1-oxo-3-phenylpropan-2-yl)benzenesulfonamide] | 15.14 ± 1.24 | – | – | 32.3 ± 2.6 | –
O=C(O)[C@H](Cc1c[nH]c2ccccc12)NS(=O)(=O)c1ccc(Br)cc1 [Compound 85, (S)-2-(4-Bromophenylsulfonamido)-3-(1H-indol-3-yl)propanoic acid] | 10.28 ± 3.54 | – | – | 20.2 ± 1.65 | –
COc1ccc(C(=O)NNC(=O)[C@H](Cc2c[nH]c3ccccc23)NS(=O)(=O)c2ccc(C)cc2)cc1 [Compound 182, (S)—N-(3-(1H-indol-3-yl)-1-(2-(4-methoxybenzoyl)hydrazinyl)-1-oxopropan-2-yl)-4-methylbenzenesulfonamide] | 0.19 ± 15.38 | – | – | – | 69.62 ± 3.16 (10 μM)
CC(C)C[C@H](NC(=O)CCS(=O)(=O)c1ccccc1)C(=O)Nc1ccc(N2CCOCC2)cc1 [Compound 61, (S)-4-Methyl-N-(4-morpholinophenyl)-2-(3-(phenylsulfonyl)propanamido)pentanamide] | −1.25 ± 3.63 | – | – | 60.3 ± 4.8 | –
Cc1ccc(S(=O)(=O)N[C@@H](Cc2c[nH]c3ccccc23)C(=O)NCCc2ccc(Br)cc2)cc1 [Compound 221, (S)—N-(4-bromophenethyl)-3-(1H-indol-3-yl)-2-(4-methylphenylsulfonamido)propanamide] | 97.31 ± 0.8 | 40.1 ± 3.09 | – | – | –
Cc1ccc(S(=O)(=O)N[C@@H](CC(C)C)C(=O)OCc2ccccc2)cc1 [Compound 49, (S)-benzyl 4-methyl-2-(4-methylphenylsulfonamido)pentanoate] | 96.77 ± 0.70 | – | – | 43.1 ± 6.46 | –
COc1ccc(-c2csc(NC(=O)[C@H](Cc3c[nH]c4ccc(O)cc34)NS(=O)(=O)c3ccc(Br)cc3)n2)cc1 [Compound 217, (S)-2-(4-Bromophenylsulfonamido)-3-(5-hydroxy-1H-indol-3-yl)-N-(4-(4-methoxyphenyl)thiazol-2-yl)propanamide] | 89.41 ± 0.79 | 21.3 | – | – | –
CC(C)C[C@H](NS(=O)(=O)c1ccc(C(C)C)cc1)C(=O)Nc1ccc(N2CCOCC2)cc1 [Compound 32, (S)-2-(4-isopropylphenylsulfonamido)-4-methyl-N-(4-morpholinophenyl)pentanamide] | 20.27 ± 5.87 | – | – | 25.8 ± 2.5 | –
Cc1ccc(S(=O)(=O)N[C@@H](Cc2c[nH]c3ccccc23)C(=O)NCCc2ccccc2)cc1 [Compound 188, (S)-3-(1H-indol-3-yl)-2-(4-methylphenylsulfonamido)-N-phenethylpropanamide] | 53.90 ± 1.97 | 61.1 ± 12.9 | – | – | –
CC(C)C[C@H](NS(=O)(=O)c1cccc([N+](=O)[O-])c1)C(=O)N1CCOCC1 [Compound 19, (S)—N-(4-methyl-1-morpholino-1-oxopentan-2-yl)-3-nitrobenzenesulfonamide] | 22.61 | – | – | 33.8 ± 8.2 | –
Cc1ccc(S(=O)(=O)N[C@@H](CC(C)C)C(=O)N2CCS(=O)(=O)CC2)cc1 [Compound 5, (S)—N-(1-(1,1-dioxidothiomorpholino)-4-methyl-1-oxopentan-2-yl)-4-methylbenzenesulfonamide] | 15.98 | – | – | 47.4 ± 7.4 | –
CNC(=O)c1ccc(S(=O)(=O)N[C@@H](Cc2c[nH]c3ccccc23)C(=O)Nc2ccc(N3CCOCC3)cc2)cc1 [Compound 116, (S)-4-(N-(3-(1H-indol-3-yl)-1-(4-morpholinophenylamino)-1-oxopropan-2-yl)sulfamoyl)-N-methylbenzamide] | 34.22 ± 7.94 | -0.11 ± 15.1 | – | – | –
COc1ccc(-c2csc(NC(=O)[C@H](Cc3c[nH]c4ccccc34)NS(=O)(=O)c3ccc(C(C)C)cc3)n2)cc1 [Compound 82, (S)-3-(1H-indol-3-yl)-2-(4-isopropylphenylsulfonamido)-N-(4-(4-methoxyphenyl)thiazol-2-yl)propanamide] | 96.64 ± 0.09 | – | – | 29.3 ± 2.7 | –
Cc1ccc(S(=O)(=O)N[C@@H](Cc2c[nH]c3ccccc23)C(=O)Nc2nc3ccccc3s2)cc1 [Compound 84, (S)—N-(benzo[d]thiazol-2-yl)-3-(1H-indol-3-yl)-2-(4-methylphenylsulfonamido)propanamide] | 20.93 ± 11.89 | – | – | -15.8 ± 6.29 | –
COc1ccc(-c2csc(NC(=O)[C@H](Cc3c[nH]c4ccc(F)cc34)NS(=O)(=O)c3ccc(Br)cc3)n2)cc1 [Compound 219, (S)-2-(4-Bromophenylsulfonamido)-3-(5-fluoro-1H-indol-3-yl)-N-(4-(4-methoxyphenyl)thiazol-2-yl)propanamide] | 95.58 ± 0.08 | 46.9 ± 8.36 | – | – | –
COc1ccc(-c2nnc(NC(=O)[C@H](CC(C)C)NS(=O)(=O)c3ccc(C)cc3)s2)cc1 [Compound 87, (S)—N-(5-(4-methoxyphenyl)-1,3,4-thiadiazol-2-yl)-4-methyl-2-(4-methylphenylsulfonamido)pentanamide] | 36.61 ± 3.85 | – | – | 50.2 ± 7.05 | –
Cc1ccc(-c2csc(NC(=O)[C@H](CC(C)C)N(C)S(=O)(=O)c3ccccc3)n2)cc1 [Compound 97, (S)-4-Methyl-2-(methylphenylsulfonamido)-N-(4p-tolylthiazol-2-yl)pentanamide] | 67.10 ± 7.93 | – | – | 15.1 ± 2.59 | –
Cc1ccc(S(=O)(=O)N[C@@H](CC(C)C)C(=O)Nc2ccc(N3CCOCC3)c(F)c2)cc1 [Compound 14, (S)—N-(3-fluoro-4-morpholinophenyl)-4-methyl-2-(4-methylphenylsulfonamido)pentanamide] | 29.87 ± 2.48 | – | – | 55.6 ± 1.06 | –
CC(C)C[C@H](NC(=O)CCS(=O)(=O)c1ccccc1)C(=O)N1CCOCC1 [Compound 58, (S)—N-(4-Methyl-1-morpholino-1-oxopentan-2-yl)-3-(phenylsulfonyl)propanamide] | −0.81 ± 4.95 | – | – | 63.1 ± 4.5 | –
CC(C)C[C@H](NS(=O)(=O)c1cccc([N+](=O)[O-])c1)C(=O)Nc1ccc(N2CCOCC2)cc1 [Compound 24, (S)-4-methyl-N-(4-morpholinophenyl)-2-(3-nitrophenylsulfonamido)pentanamide] | 18.38 ± 11.76 | – | – | 59.4 ± 2.3 | –
Cc1ccc(S(=O)(=O)N[C@@H](CC(C)C)C(=O)Nc2nc(-c3ccc(O)cc3)cs2)cc1 [Compound 96, (S)—N-(4-(4-hydroxyphenyl)thiazol-2-yl)-4-methyl-2-(4-methylphenylsulfonamido)pentanamide] | 93.07 ± 5.89 | – | – | 36.8 ± 9.16 | –
CC(C)C[C@H](NS(=O)(=O)c1cccc2ccccc12)C(=O)Nc1ccc(N2CCOCC2)cc1 [Compound 25, (S)-4-methyl-N-(4-morpholinophenyl)-2-(naphthalene-1-sulfonamido)pentanamide] | 38.92 ± 1.69 | – | – | 25.5 ± 5.4 | –
Cc1ccc(S(=O)(=O)N[C@@H](Cc2c[nH]c3ccccc23)C(=O)Nc2ccc(N3C[C@@H](C)O[C@@H](C)C3)nc2)cc1 [Compound 75, (S)—N-(6-((2S,6R)-2,6-dimethylmorpholino)pyridin-3-yl)-3-(1H-indol-3-yl)-2-(4-methylphenylsulfonamido)propanamide] | 79.58 ± 3.72 | – | – | 57.8 ± 8 | –
COc1ccc(-c2csc(NC(=O)[C@H](CC(C)C)NS(=O)(=O)c3ccc(C)cc3)n2)cc1OC [Compound 91, (S)—N-(4-(3,4-dimethoxyphenyl)thiazol-2-yl)-4-methyl-2-(4-methylphenylsulfonamido)pentanamide] | 87.36 ± 2.13 | – | – | 16.4 ± 8.65 | –
COC(=O)c1ccc(S(=O)(=O)N[C@@H](Cc2c[nH]c3ccccc23)C(=O)Nc2ccc(N3CCOCC3)cc2)cc1 [Compound 113, (S)-Methyl 4-(N-(3-(1H-indol-3-yl)-1-(4-morpholinophenylamino)-1-oxopropan-2-yl)sulfamoyl)benzoate] | 4.67 ± 3.85 | 15.1 ± 6.22 | – | – | –
